Source: US20070099822A1, “Regulation of tissue mineralization and phosphate metabolism by asarm peptides” (priority 2003, published 2007)
Entries after “also recorded” stand apart in the source; their conditions may differ.

B1: Hu-MEPE: purified insect expressed full-length recombinant human MEPE (Matrix Extracellular Phosphoglycoprotein) (protein)
chain: PTFQPQTEKTKQSCVEEQRQEEKNKDNIGFHHLGKRINQELSSKENIVQERKKDLSLSEASENKGSSKSQNYFTNRQRLNKEYSISNKENTHNGLRMSIYPKSTGNKGFEDGDDAISKLHDQEEYGAALIRNNMQHIMGPVTAIKLLGEENKENTPRNVLNIIPASMNYAKAHSKDKKKPQRDSQAQKSPVKSKSTHRIQHNIDYLKHLSKVKKIPSDFEGSGYTDLQERGDNDISPFSGDGQPFKDIPGKGEATGPDLEGKDIQTGFAGPSEAESTHLDTKKPGYNEIPEREENGGNTIGTRDETAKEADAVDVSLVEGSNDIMGSTNFKELPGREGNRVDAGSQNAHQGKVEFHYPPAPSKEKRKEGSSDAAESTNYNEIPKNGKGSTRKGVDHSNRNQATLNEKQRFPSKGKSQGLPIPSRGLDNEIKNEMDSFNGPSHENIITHGRKYHYVPHRQNNSTRNKGMPQGKGSWGRQPHSNRRFSSRRRDDSSESSDSGSSSESDGD

What was measured:
male ICR Swiss mice = test: Example VI: subcutaneous PO4-ASARM-peptide or etidronate, calcein fluorescence and Sanderson osteoid staining; type: in vivo; details: four layers visible in vehicle group
Description: Subcutaneous administration of PO4-ASARM-peptide, etidronate (EHDP), and calcein. Three separate groups of male ICR Swiss mice (4-5 weeks) were subcutaneously injected once a day (9:00AM), for 12 days except for days 6 and 7 with 50 μL solutions of either (1) Eitidronate (EHDP) (10 mg/kg/day); (2) PO4-ASARM-peptide (2 mg/kg/day); or (3) vehicle consisting of 5 mM HEPES pH 7.4/150 mM NaCL/0.1% BSA. The synthetic PO4-ASARM-peptide was dissolved in vehicle (1.0 mg/mL). Etidronate was first dissolved in 150 mM NaCl and then buffered to pH 7.5 with 1M NaOH to give a 5 mg/mL solution. The 10 mg/kg/day doses of etidronate have previously been reported to inhibit mineralization in rats and were used as positive controls (Trechsel, et al., Am J Physiol 232(3):E298-305, 1977; Bonjour, et al., Am J Physiol 229(2):402-8, 1975). All three groups were subcutaneously injected with calcein (20 mg/kg/day) on days 3, 5, […]. The degree of calcein fluorescence and/or fluorescence-quenching is an indicator of mineralization status (see next section). The calcein injections when given were administered 1 h after the daily injections of PO4-ASARM-peptide, EHDP or vehicle. Animals were then terminated humanely and calvariae plus femurs/tibia were fixed in 70% ethanol (non-decalcified). After fluorescence imaging (see FIG. 35) calvariae were processed in plastic and stained with Sanderson's stain (see below). Five animals per group were used for statistical analysis of fluorescence quenching and histological Sanderson staining.
Calcein fluorescence in mice calvariae, hind-limbs & fluor-imager analysis of mineralization. A Bio-Rad (Hercules, Calif.) FluorImager^max fluorescent imager was used to simultaneously image all the samples from each of the 3 groups (15 animals; five animals per group). This consisted of 10 tibia/femurs and 5 calvariae per group. Samples were placed on top of the FluorImager plate contained within a light-tight box. Ultra-violet light was used to generate calcein-mediated epi-fluorescence and the fluorescent-image was captured on a −40° C., peltier-cooled, 1,340×1040 pixel CCD resolution, CCD digital-camera. Quantitation of fluorescence was carried out using Quantity-1 (Bio-Rad, Hercules, Calif.) fluorescence-software. Pixel saturation was prevented by internal software calibration and exposure adjustment. All fluorescence readings were thus accurately quantitative and non-saturating. Photo-micrographic UV fluorescent analysis of calvarial cross sections embedded in plastic and mounted as slides (<100 micrometer sections) was also undertaken and a description of the fixation and processing is given in the next section.
Sanderson-staining and fluorescence detection of calvarial osteoid & mineralized bone. Staining of non-decalcified calvarial sections was performed using the method described by Sanderson and Bachus (Staining technique to differentiate mineralized and demineralized bone in ground sections, J Histotechnol 20(2): 119-122, 1997). This technique provides differential staining between unmineralized osteoid and mineralized bone. Prior to staining, calvariae were dissected and attached tissue removed. Calvariae were then placed in 70% ethanol for further fixation as described by Sanderson and Bachus (supra). After fixing and processing undecalcified calvariae were embedded in plastic (LR-white acrylic resin (London Resin Co., Reading, England)) as previously described (Garrett, et al., Selective inhibitors of the osteoblast proteasome stimulate bone formation in vivo and in vitro, J Clin Invest 111(11):1771-1782, 2003). Plastic embedded sections were ground to <100 micrometers using a specialized grinding-pestle as described by Donath and Breuner (A method for the study of undecalcified bones and teeth with attached soft tissues. The Sage-Schliff (sawing and grinding) technique, J Oral Pathol 11(4):318-26, 1982). […]

[1] = system: mouse osteoblast cell-line 2T3; test: Mineralized bone matrix formation assay (von Kossa), BMP2-induced; type: cell-based; details: 2T3 cells; for effect on BMP2-mediated mineralization (von Kossa staining): Hu-MEPE 10-800 ng/mL, ASARM-peptide 60 and 300 ng/mL, control peptide 300 ng/mL
Description: Mineralized bone matrix formation assay. A mouse osteoblast cell-line (2T3-cells) were monitored using a mineralized matrix formation assay as described by Bhargava et al. (Ultrastructural analysis of bone nodules formed in vitro by isolated fetal rat calvaria cells. Bone 9:155-63, 1988) and cultured as described previously (Bhargava et al., supra; Chen et al. Differential roles for bone morphogenetic protein (BMP) receptor type IB and IA in differentiation and specification of mesenchymal precursor cells to osteoblast and adipocyte lineages. J Cell Biol 142:295-305, 1998; and Zhao, et al. Bone morphogenetic protein receptor signaling is necessary for normal murine postnatal bone formation. J Cell Biol 157:1049-60, 2002). Mineralization of the murine osteoblastic 2T3 cell-line has been extensively studied using physical techniques, electron microscopy and histological techniques. This cell line (2T3) undergoes exogenous BMP2-induced mineralized-matrix indistinguishable from normal bone-mineral hydroxyapatite in-vitro (Bhargava et al., supra; Chen et al., supra; and Zhao et al., supra). The cells were plated in 24-well culture plates at density of 2×10^4 cells/well and cultured with minimal essential medium (MEM) supplemented with 10% FCS. When the cells reached confluency (day 0), the medium was changed to MEM containing 5% FCS, 100 μg/mL ascorbic acid and 5 mM β-glycerol phosphate with or without 100 ng/mL of BMP-2. The effects of Hu-MEPE, MEPE ASARM-peptide and control peptide at different doses (see results section) in the absence and presence of BMP2 were measured using the von Kossa stain for mineralization. The medium was changed every other day and fresh reagents were added. Von Kossa stain of mineralized bone matrix was performed as follows. The cell cultures were washed with PBS twice, fixed in phosphate buffered formalin for 10 min, and then washed with water, and serially dehydrated in 70%, 95%, and 100% ethanol, twice each and air dried. The plates were rehydrated from 100% to 95% to 80% ethanol to water before staining. The water was removed, a 2% silver nitrate solution was added, and the plates were exposed to sunlight for 20 min, after which the plates were rinsed with water. 5% sodium thiosulfate was added for 3 min and the plates were then rinsed with water. The modified van Gieson stain was then used as a counterstain after the von Kossa stain. The unmineralized collagen matrix can be recognized by the yellow/red van Gieson stain. The acid fuchsin solution (5 part of 1% acid fuchsin, 95 part of picric acid, and 0.25 part of 12 M HCl) was added for 5 min. The plates were washed with water, and then 2×95% ethanol and 2×100% ethanol, and dried for image analysis. The area of von Kossa stained matrix was quantitated as previously described (Chen et al., supra). Briefly matrix was quantified by automated image analysis using a video analysis program (Jandel Scientific, San Rafael Calif.) and also a Bio-Rad (Hercules, Calif.) Quantity-1 image analysis capture program. A video screen camera (CCD/RGB; Sony Corp., Park Ridge, N.J.) linked to a microscope (model BH2; Olympus Corp., Precision Instruments Division, Lake Success, N.Y.) equipped with metallurgical lens was used to image plates.

Molecule	lamellar calcein fluorescent layers in calvarial cross-sections (male ICR Swiss mice)	effect on BMP2-mediated mineralization (von Kossa staining) ([1]; BMP2 100 ng/mL, listed as MEPE ASARM-peptide)	effect on BMP2-mediated mineralization (von Kossa staining) ([1]; BMP2 100 ng/mL, listed as MEPE-ASARM-peptide)	effect on BMP2-mediated mineralization at concentrations above 100 ng/mL ([1]; BMP2 100 ng/mL, Hu-MEPE above 100 ng/mL)	effect on BMP2-mediated mineralization (von Kossa staining) ([1]; BMP2 100 ng/mL)	mineralization in the absence of BMP2 ([1]; no BMP2)
H-CFSSRRRDDSSESSDSGSSSESDGD-OH [ASARM-peptide]	complete absence	dose-dependently inhibits	inhibit			
B1				very effective inhibitors; also recorded: completely inhibited mineralization	dose dependently and reproducibly inhibited mineralization; also recorded: inhibit; also recorded: highly significant inhibition	no effect on mineralization; also recorded: indistinguishable to control cells
